Values quoted from earlier work in patent publication US4156777A, “Process for producing glucopyranose-nitrosourea compounds and novel compounds included therein” (Tokyo Tanabe Company, Limited, priority 1977, dated 1979).

Conditions: rat, in vivo; cited from earlier work

For `CN(N=O)C(=O)N[C@H]1C(O)O[C@H](CO)[C@@H](O)[C@@H]1O` (stereo partly drawn) [SZ, 3-(d-glucopyranos-2-yl)-1-methyl-1-nitrosourea], the “diabetogenic activity, decreasing order” value is given as “SZ>DCNU>GANU> 2MCαG≈6MCαG”.
